The values below come from patent US10233191B2, “Fused piperidine amides as modulators of ion channels” (Vertex Pharmaceuticals Incorporated, priority 2013, dated 2019).

A word on the IC50: it is the concentration that inhibits the measured activity by half.

The structures appear in SMILES notation.

In this assay the target is T1, NaV 1.7 (Homo sapiens, UniProt Q15858).
T1 construct: expressed in transfected cells; host or cells: HEK cells
T1 sequence (Q15858 whole entry): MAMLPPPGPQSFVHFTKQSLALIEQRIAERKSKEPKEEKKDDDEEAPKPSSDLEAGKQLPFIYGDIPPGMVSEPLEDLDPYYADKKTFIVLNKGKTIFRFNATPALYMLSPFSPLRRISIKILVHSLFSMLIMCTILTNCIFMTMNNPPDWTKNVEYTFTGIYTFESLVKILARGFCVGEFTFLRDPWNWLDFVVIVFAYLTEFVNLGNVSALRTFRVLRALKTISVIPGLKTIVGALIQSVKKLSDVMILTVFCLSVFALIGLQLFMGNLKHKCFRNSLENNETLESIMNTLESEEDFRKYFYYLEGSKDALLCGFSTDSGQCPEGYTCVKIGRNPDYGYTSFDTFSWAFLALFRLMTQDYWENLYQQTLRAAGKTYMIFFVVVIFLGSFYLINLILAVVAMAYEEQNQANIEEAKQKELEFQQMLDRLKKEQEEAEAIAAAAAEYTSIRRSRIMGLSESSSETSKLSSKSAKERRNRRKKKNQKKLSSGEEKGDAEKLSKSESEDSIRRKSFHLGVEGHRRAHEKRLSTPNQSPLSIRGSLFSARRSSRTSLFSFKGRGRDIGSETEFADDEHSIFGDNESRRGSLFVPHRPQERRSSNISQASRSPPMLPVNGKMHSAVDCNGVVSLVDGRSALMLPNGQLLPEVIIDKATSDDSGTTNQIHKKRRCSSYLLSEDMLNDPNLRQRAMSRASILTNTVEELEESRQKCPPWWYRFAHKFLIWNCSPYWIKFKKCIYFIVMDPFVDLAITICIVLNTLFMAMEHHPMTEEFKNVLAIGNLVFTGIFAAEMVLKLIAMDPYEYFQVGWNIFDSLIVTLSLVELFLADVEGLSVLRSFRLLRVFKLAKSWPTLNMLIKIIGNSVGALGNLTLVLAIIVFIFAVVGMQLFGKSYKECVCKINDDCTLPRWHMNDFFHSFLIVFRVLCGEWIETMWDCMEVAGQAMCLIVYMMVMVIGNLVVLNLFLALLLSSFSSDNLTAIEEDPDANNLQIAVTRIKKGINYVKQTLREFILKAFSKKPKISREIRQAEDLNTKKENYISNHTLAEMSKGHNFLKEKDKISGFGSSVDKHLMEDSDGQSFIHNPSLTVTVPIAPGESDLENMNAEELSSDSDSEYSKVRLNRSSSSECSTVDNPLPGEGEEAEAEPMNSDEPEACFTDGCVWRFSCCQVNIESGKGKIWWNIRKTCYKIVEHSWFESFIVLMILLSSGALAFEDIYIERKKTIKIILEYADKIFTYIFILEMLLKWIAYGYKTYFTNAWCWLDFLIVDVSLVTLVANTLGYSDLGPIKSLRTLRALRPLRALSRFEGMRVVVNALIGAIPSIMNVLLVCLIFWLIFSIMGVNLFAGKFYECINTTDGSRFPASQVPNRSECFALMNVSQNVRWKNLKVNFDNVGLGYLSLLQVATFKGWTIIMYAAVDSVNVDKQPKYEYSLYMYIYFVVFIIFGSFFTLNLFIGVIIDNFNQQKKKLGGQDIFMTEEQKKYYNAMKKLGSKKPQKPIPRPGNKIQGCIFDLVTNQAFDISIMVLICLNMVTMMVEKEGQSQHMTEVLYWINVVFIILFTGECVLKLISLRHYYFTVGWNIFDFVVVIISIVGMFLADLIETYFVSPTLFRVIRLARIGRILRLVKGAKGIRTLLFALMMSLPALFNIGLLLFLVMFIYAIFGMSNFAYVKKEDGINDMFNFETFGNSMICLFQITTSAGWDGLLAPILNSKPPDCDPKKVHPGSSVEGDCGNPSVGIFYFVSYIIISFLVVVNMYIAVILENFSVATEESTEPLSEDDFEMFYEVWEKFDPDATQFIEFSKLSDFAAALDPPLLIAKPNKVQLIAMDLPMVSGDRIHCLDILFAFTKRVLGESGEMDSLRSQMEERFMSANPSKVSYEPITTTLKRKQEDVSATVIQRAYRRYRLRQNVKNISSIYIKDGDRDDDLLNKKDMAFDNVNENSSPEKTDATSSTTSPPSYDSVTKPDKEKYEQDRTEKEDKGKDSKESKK
As to the kind of experiment: E-VIPR optical membrane potential assay with electrical stimulation. It counts as cell-based. The settings on record: active against one or more sodium channels; assay/subtype not specified in Table 4; read-out: IC50 Binned Activity Data. A digest of the protocol:
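HEK cells expressing human NaV1.7, loaded with CC2-DMPE/DiSBAC6(3) FRET dyes, then exposed to compounds for 20-35 min at room temperature (0.625% DMSO). Electrical stimulation applied for 9 s with 400 Hz scanning. Read-out is the background-subtracted 460/580 nm emission ratio, normalized.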
Regarding `COc1cc(C(=O)N2CCC3(c4ccccc4)CC3C2)ccc1OCCC(C)C` (centres unmarked) [Compound 151], the IC50 was at most 2000 nM.

In the case of `Cc1cc(C(=O)N2CC[C@]3(c4ncccc4Cl)OCOC3C2)ccc1OCC(C)(C)F` (some centres unmarked) [Compound 152], the IC50 is at most 2000 nM. On to `COc1nc(C(=O)N2CC[C@]3(c4cc(C(F)(F)F)ccn4)OCOC3C2)ccc1OCCOC(F)(F)F` (some centres unmarked) [Compound 153], for which the IC50 is at most 2000 nM. The same measure for `COc1cc(C(=O)N2CC[C@]3(c4cccc(C)n4)OCOC3C2)ccc1OCCOC(F)(F)F` (some centres unmarked) [Compound 154]: at most 2000 nM. Under `COc1cc(C(=O)N2CC[C@]3(c4ncccc4Cl)OCOC3C2)ccc1OCCOC(F)(F)F` (some centres unmarked) [Compound 155] stands at most 2000 nM. Consider `CC(Oc1ccc(C(=O)N2CC[C@]3(c4ccccn4)OCOC3C2)cc1Cl)C(F)(F)F` (some centres unmarked) [Compound 156], for which the IC50 is at most 2000 nM. On to `O=C(c1ccc(OCCOC(F)(F)F)c(Cl)c1)N1CC[C@]2(c3ccccn3)OCOC2C1` (some centres unmarked) [Compound 157], for which the IC50 was at most 2000 nM. Under `COc1cc(C(=O)N2CCC3(c4ccccc4)CC3C2)ccc1OCC(C)(C)F` (centres unmarked) [Compound 158] stands at most 2000 nM; under `[2H]C1([2H])OC2CN(C(=O)c3ccc(OCCOC(F)(F)F)c(OC)n3)CC[C@]2(c2ccccc2)O1` (some centres unmarked) [Compound 159], at most 2000 nM. With `Cc1nc(C(=O)N2CC[C@]3(c4ccccn4)OCOC3C2)ccc1OCCOC(F)(F)F` (some centres unmarked) [Compound 160], the IC50 was at most 2000 nM. As to `Cc1cc(C(=O)N2CC[C@]3(c4ccccc4)OCOC3C2)ccc1OCC(C)(C)F` (some centres unmarked) [Compound 161], the IC50 is at most 2000 nM. The same measure for `COc1nc(C(=O)N2CC[C@]3(c4cccc(F)c4F)OCOC3C2)ccc1OCCOC(F)(F)F` (some centres unmarked) [Compound 162]: at most 2000 nM; for `COc1cc(C(=O)N2CC[C@]3(c4cc(F)ccc4F)OCOC3C2)ccc1OCCOC(F)(F)F` (some centres unmarked) [Compound 163]: at most 2000 nM. Under `CC(COc1ccc(C(=O)N2CC[C@]3(c4ccccn4)OCOC3C2)cc1Cl)CC(F)(F)F` (some centres unmarked) [Compound 164] stands at most 2000 nM.

With `Cc1cc(C(=O)N2CC[C@]3(c4ccccn4)OCOC3C2)ccc1OCCOC(F)(F)F` (some centres unmarked) [Compound 165], the IC50 is at most 2000 nM.

Turning to `O=C(c1ccc(OCC(F)(F)C(F)F)c(Cl)c1)N1CC[C@]2(c3ccccn3)OCOC2C1` (some centres unmarked) [Compound 166], the IC50 was at most 2000 nM. The same measure for `Cc1cc(C(=O)N2CC[C@]3(c4nccs4)OCOC3C2)ccc1OCCOC(F)(F)F` (some centres unmarked) [Compound 167]: at most 2000 nM.

Turning to `Cc1cc(C(=O)N2CC[C@@]3(c4nccs4)OCOC3C2)ccc1OCCOC(F)(F)F` (some centres unmarked) [Compound 168], the IC50 was at most 2000 nM.

Consider `COc1cc(C(=O)N2CC[C@]3(c4cccc(C(F)(F)F)n4)OCOC3C2)ccc1OCCOC(F)(F)F` (some centres unmarked) [Compound 169], for which the IC50 was at most 2000 nM. Take `COc1cc(C(=O)N2CC[C@]3(c4cccc(Cl)c4)OCOC3C2)ccc1OC(C)C(F)(F)F` (some centres unmarked) [Compound 170]: the IC50 is at most 2000 nM. The same measure for `Cc1cc(C(=O)N2CCC3(c4ccccc4)CC3C2)ccc1OCC(C)(C)O` (centres unmarked) [Compound 171]: at most 2000 nM; for `[2H]C1([2H])OC2CN(C(=O)c3ccc(OCC4CC(F)(F)C4)c(OC)c3)CC[C@]2(c2cc(F)cc(F)c2)O1` (some centres unmarked) [Compound 172]: at most 2000 nM; for `[2H]C1([2H])OC2CN(C(=O)c3ccc(OC(C)C(F)(F)F)c(OC)c3)CC[C@]2(c2cc(F)cc(F)c2)O1` (some centres unmarked) [Compound 173]: at most 2000 nM. `[2H]C1([2H])OC2CN(C(=O)c3ccc(OCCOC(F)(F)F)c(OC)c3)CC[C@]2(c2cc(F)cc(F)c2)O1` (some centres unmarked) [Compound 174]: the IC50 is at most 2000 nM.

Regarding `COc1nc(C(=O)N2CC[C@]3(c4cccc(Cl)c4)OCOC3C2)ccc1OCC1CC(F)(F)C1` (some centres unmarked) [Compound 175], the IC50 was at most 2000 nM. For `COc1cc(C(=O)N2CC[C@]3(c4cccc(Cl)c4)OCOC3C2)ccc1OCC1CC(F)(F)C1` (some centres unmarked) [Compound 176], the IC50 is at most 2000 nM. The same measure for `[2H]C1([2H])OC2CN(C(=O)c3ccc(OCC4CC(F)(F)C4)c(OC)c3)CC[C@]2(c2cccc(F)c2)O1` (some centres unmarked) [Compound 177]: at most 2000 nM; for `COc1nc(C(=O)N2CCC3(c4ccccc4)CC3C2)ccc1OCCOC(F)(F)F` (centres unmarked) [Compound 178]: at most 2000 nM. `COc1cc(C(=O)N2CC[C@]3(c4cc(C(F)(F)F)ccn4)OCOC3C2)ccc1OCCOC(F)(F)F` (some centres unmarked) [Compound 179]: the IC50 is at most 2000 nM. For `COc1nc(C(=O)N2CC[C@]3(c4cccc(F)c4)OCOC3C2)ccc1OCC1CC(F)(F)C1` (some centres unmarked) [Compound 180], the IC50 is at most 2000 nM.

Turning to `[2H]C1([2H])OC2CN(C(=O)c3ccc(OCCOC(F)(F)F)c(OC)c3)CC[C@]2(c2cccc(F)c2)O1` (some centres unmarked) [Compound 181], the IC50 is at most 2000 nM. Under `Cc1cc(C(=O)N2CC[C@]3(c4ncccc4Cl)OCOC3C2)ccc1OCCOC(F)(F)F` (some centres unmarked) [Compound 182] stands at most 2000 nM. The same measure for `COc1nc(C(=O)N2CC[C@]3(c4cccc(Cl)c4)OCOC3C2)ccc1OCCOC(F)(F)F` (some centres unmarked) [Compound 183]: at most 2000 nM; for `COc1cc(C(=O)N2CC[C@]3(c4cccc(F)c4F)OCOC3C2)ccc1OCC1CC(F)(F)C1` (some centres unmarked) [Compound 184]: at most 2000 nM.

As for `COc1nc(C(=O)N2CC[C@]3(c4cccc(F)c4)OCOC3C2)ccc1OCC(F)(F)C(F)F` (some centres unmarked) [Compound 185], the IC50 was at most 2000 nM. Under `COc1cc(C(=O)N2CC[C@]3(c4cccc(F)c4F)OCOC3C2)ccc1OCCOC(F)(F)F` (some centres unmarked) [Compound 186] stands at most 2000 nM; under `COc1cc(C(=O)N2CC[C@]3(c4cccc(F)c4F)OCOC3C2)ccc1OC(C)C(F)(F)F` (some centres unmarked) [Compound 187], at most 2000 nM; under `COc1nc(C(=O)N2CC[C@]3(c4cccc(F)c4)OCOC3C2)ccc1OCCOC(F)(F)F` (some centres unmarked) [Compound 188], at most 2000 nM. Under `[2H]C1([2H])OC2CN(C(=O)c3ccc(OCCOC(F)(F)F)c(OC)n3)CC[C@]2(c2cccc(F)c2)O1` (some centres unmarked) [Compound 189] stands at most 2000 nM. Under `COc1cccc([C@]23CCN(C(=O)c4ccc(OCCOC(F)(F)F)c(C)c4)CC2OCO3)n1` (some centres unmarked) [Compound 190] stands at most 2000 nM; under `Cc1nc(C(=O)N2CCC3(c4ccccc4)CC3C2)ccc1OCCOC(F)(F)F` (centres unmarked) [Compound 191], at most 2000 nM; under `COc1cccc([C@]23CCN(C(=O)c4ccc(OCCOC(F)(F)F)c(OC)c4)CC2OCO3)n1` (some centres unmarked) [Compound 192], at most 2000 nM.

Regarding `COc1cc(C(=O)N2CC[C@]3(c4cccc(F)c4)OCOC3C2)ccc1OCC1CC(F)(F)C1` (some centres unmarked) [Compound 193], the IC50 is at most 2000 nM. Under `Cc1cccc([C@]23CCN(C(=O)c4ccc(OCCOC(F)(F)F)c(C)c4)CC2OCO3)n1` (some centres unmarked) [Compound 194] stands at most 2000 nM; under `COc1cc(C(=O)N2CCC3(c4ccccc4)CC3C2)ccc1OCCOC(F)(F)F` (centres unmarked) [Compound 195], at most 2000 nM. As to `COc1nc(C(=O)N2CC[C@]3(c4cccc(F)c4)OCOC3C2)ccc1OCC1C2CC(F)(F)CC12` (some centres unmarked) [Compound 196], the IC50 was at most 2000 nM. Under `COc1cc(C(=O)N2CC[C@]3(c4cc(C(F)(F)F)ccn4)OCOC3C2)ccc1OCC(F)(F)C(F)F` (some centres unmarked) [Compound 197] stands at most 2000 nM. As for `COc1cc(C(=O)N2CC[C@]3(c4cc(C(F)(F)F)ccn4)OCOC3C2)ccc1OCC1(C(F)(F)F)CC1` (some centres unmarked) [Compound 198], the IC50 was at most 2000 nM.

As to `COc1cc(C(=O)N2CC[C@]3(c4cccc(F)c4)OCOC3C2)ccc1N(C)CC1CC(F)(F)C1` (some centres unmarked) [Compound 199], the 50% inhibitory concentration (IC50) is at most 2000 nM. Under `COc1nc(C(=O)N2CC[C@]3(c4cccc(F)c4)OCOC3C2)ccc1OCCC1CC(F)(F)C1` (some centres unmarked) [Compound 200] stands at most 2000 nM; under `O=C(c1ccc(OCCOC(F)(F)F)c(Cl)c1)N1CC[C@]2(c3ccccn3)COC2C1` (some centres unmarked) [Compound 201], at most 2000 nM; under `O=C(c1ccc(OCCOC(F)(F)F)c(Cl)c1)N1CC[C@@]2(c3ccccn3)COC2C1` (some centres unmarked) [Compound 202], at most 2000 nM. Turning to `COc1ccnc([C@]23CCN(C(=O)c4ccc(OCC5CC(F)(F)C5)c(OC)c4)CC2OCO3)c1` (some centres unmarked) [Compound 203], the IC50 was at most 2000 nM.

As to `COc1cc(C(=O)N2CC[C@]3(c4cc(C(F)(F)F)ccn4)OCOC3C2)ccc1OCC1CCC(F)(F)C1` (some centres unmarked) [Compound 204], the IC50 is at most 2000 nM.

With `CC(C)(F)COc1ccc(C(=O)N2CC[C@@]3(c4ccccn4)CO[C@H]3C2)cc1C(F)(F)F` [Compound 205], the IC50 was above 5000 nM.

With `Cc1cc(C(=O)N2CC[C@@]3(c4ccccn4)COC3C2)ccc1OCCOC(F)(F)F` (some centres unmarked) [Compound 206], the IC50 was at most 2000 nM.

For the compound `O=C(c1ccc(OCC2(C(F)(F)F)CC2)c(Cl)c1)N1CC[C@]2(c3ccccn3)COC2C1` (some centres unmarked) [Compound 207], the half-maximal inhibitory concentration (IC50) is at most 2000 nM. With `O=C(c1ccc(OCC2CC(F)(F)C2)c(Cl)c1)N1CC[C@@]2(c3ccccn3)COC2C1` (some centres unmarked) [Compound 208], the IC50 is at most 2000 nM. On to `COc1nc(C(=O)N2CC[C@@]3(c4ccccn4)COC3C2)ccc1OCC(F)(F)C(F)F` (some centres unmarked) [Compound 209], for which the IC50 is at most 2000 nM.

For `COc1cc(C(=O)N2CC[C@@]3(c4ccccn4)COC3C2)ccc1OCC1CC(F)(F)C1` (some centres unmarked) [Compound 210], the IC50 was in the range of 2000 to 5000 nM. Regarding `COc1cc(C(=O)N2CC[C@]3(c4cccc(F)c4)OCOC3C2)ccc1NCC1CC(F)(F)C1` (some centres unmarked) [Compound 211], the IC50 was at most 2000 nM. Under `COc1cc(C(=O)N2CC[C@@]3(c4cccc(F)c4)OCOC3C2)ccc1OC(C)C(F)(F)F` (some centres unmarked) [Compound 212] stands 2000 to 5000 nM.
